Results reported in PMC9245008 (ACS chemical biology, 2022).

What was measured:
[1] = target: T1, IRAK4 (Homo sapiens, UniProt Q9NWZ3); settings: cited from earlier work
T1 sequence (Q9NWZ3 1-460): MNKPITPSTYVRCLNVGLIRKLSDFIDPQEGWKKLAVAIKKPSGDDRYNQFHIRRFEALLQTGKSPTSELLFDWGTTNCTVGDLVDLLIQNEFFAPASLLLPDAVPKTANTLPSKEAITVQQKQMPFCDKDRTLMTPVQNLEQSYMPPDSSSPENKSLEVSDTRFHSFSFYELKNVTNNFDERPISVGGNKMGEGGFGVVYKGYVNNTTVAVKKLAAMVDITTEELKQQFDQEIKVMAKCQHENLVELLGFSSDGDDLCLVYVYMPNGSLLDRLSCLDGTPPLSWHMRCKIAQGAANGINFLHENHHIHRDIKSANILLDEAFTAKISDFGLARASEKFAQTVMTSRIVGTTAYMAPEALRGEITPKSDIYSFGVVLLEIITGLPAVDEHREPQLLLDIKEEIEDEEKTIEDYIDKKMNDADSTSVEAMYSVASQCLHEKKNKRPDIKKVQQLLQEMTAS

[2] = system: CIA mouse model; settings: 50 mg/kg IP; cited from earlier work
[3] = target: T2, TAK1 (Homo sapiens, UniProt O43318); experiment: Potency of takinib analogues against TAK1; type: biochemical
T2 sequence (O43318 1-303 limits assumed): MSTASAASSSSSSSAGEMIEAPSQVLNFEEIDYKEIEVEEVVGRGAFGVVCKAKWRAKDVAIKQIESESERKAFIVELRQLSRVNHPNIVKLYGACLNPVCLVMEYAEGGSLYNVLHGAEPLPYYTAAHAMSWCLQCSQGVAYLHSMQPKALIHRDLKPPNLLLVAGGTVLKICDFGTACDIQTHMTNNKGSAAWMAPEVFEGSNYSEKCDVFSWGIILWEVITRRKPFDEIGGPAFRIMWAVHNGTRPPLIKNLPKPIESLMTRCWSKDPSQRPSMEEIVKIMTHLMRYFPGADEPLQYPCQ

[4] = target: T1, IRAK4; experiment: Potency of takinib analogues against IRAK4; type: biochemical; settings: IRAK4 IC50 over TAK1 IC50

In the case of `CCCn1c(=NC(=O)c2cccc(C(N)=O)c2)[nH]c2ccccc21` [Takinib, N-(1-propyl-1,3-dihydro-2H-benzo[d]imidazol-2-ylidene)isophthalamide], the “IRAK4 less potently inhibited than TAK1” value [1] is given as 13 fold, the IC50 ([1]; read-out: IRAK4 IC50, two independent kinome wide screens) is given as roughly 120 nM and the “reduction of mean clinical score” value [2] is given as ~ 32%. For the same molecule, the IC50 [3] was 9 nM and the Ratio [4] was 13.
